Experimental data as given in the kinase profiling compilation of Christmann-Franck et al. (2016).
Several values for one entry are separate records, joined by “and”; a condition that tells them apart may be missing. Identical values can stand only once.

What was measured:
Experiment in all cases: radiometric filter-binding kinase assay, Kinase HotSpot
Conditions in all cases: compound 0.5 µM; ATP 10 µM
TGFBR2 (human) = TGFBR2 (human) (UniProt P37173)
FGR (human) = FGR (human) (UniProt P09769)
NEK6 (human) = NEK6 (human) (UniProt Q9HC98)
PNCK (human) = PNCK (human) (UniProt Q6P2M8)
CDK6 CCND3 (human) = CDK6 CCND3 (human) (UniProt P30281+Q00534)
STK33 (human) = STK33 (human) (UniProt Q9BYT3)
STK3 (human) = STK3 (human) (UniProt Q13188)
MAP3K7 TAB1 (human) = MAP3K7 TAB1 (human) (UniProt O43318+Q15750)
MAP2K1 (human) = MAP2K1 (human) (UniProt Q02750)
EPHB3 (human) = EPHB3 (human) (UniProt P54753)
STK10 (human) = STK10 (human) (UniProt O94804)
DCLK2 (human) = DCLK2 (human) (UniProt Q8N568)
CAMK2A (human) = CAMK2A (human) (UniProt Q9UQM7)
NEK9 (human) = NEK9 (human) (UniProt Q8TD19)
MAPKAPK3 (human) = MAPKAPK3 (human) (UniProt Q16644)
PRKG1 (human) = PRKG1 (human) (UniProt Q13976)
STK17A (human) = STK17A (human) (UniProt Q9UEE5)
CLK1 (human) = CLK1 (human) (UniProt P49759)
JAK3 JH1 JH2 (human) = JAK3 JH1 JH2 (human) (UniProt P52333)
IRAK1 (human) = IRAK1 (human) (UniProt P51617)
STK25 (human) = STK25 (human) (UniProt O00506)
CAMK2B (human) = CAMK2B (human) (UniProt Q13554)
CAMK4 (human) = CAMK4 (human) (UniProt Q16566)
MAPK8 (human) = MAPK8 (human) (UniProt P45983)
STK38 (human) = STK38 (human) (UniProt Q15208)
CAMK2G (human) = CAMK2G (human) (UniProt Q13555)
MAP3K5 (human) = MAP3K5 (human) (UniProt Q99683)
MYLK (human) = MYLK (human) (UniProt Q15746)
MAP3K11 (human) = MAP3K11 (human) (UniProt Q16584)
PASK (human) = PASK (human) (UniProt Q96RG2)
STK16 (human) = STK16 (human) (UniProt O75716)
MINK1 (human) = MINK1 (human) (UniProt Q8N4C8)
MAP4K4 (human) = MAP4K4 (human) (UniProt O95819)
CDK4 CCND3 (human) = CDK4 CCND3 (human) (UniProt P30281+P11802)
CAMK1 (human) = CAMK1 (human) (UniProt Q14012)
ROCK2 (human) = ROCK2 (human) (UniProt O75116)
CAMK2D (human) = CAMK2D (human) (UniProt Q13557)
MAPK3 (human) = MAPK3 (human) (UniProt P27361)
CDK5 CDK5R1 p35 (human) = CDK5 CDK5R1 p35 (human) (UniProt Q00535+Q15078)
GRK5 (human) = GRK5 (human) (UniProt P34947)

Chain of PRKG1 (human) (Q13976 whole entry, looked up): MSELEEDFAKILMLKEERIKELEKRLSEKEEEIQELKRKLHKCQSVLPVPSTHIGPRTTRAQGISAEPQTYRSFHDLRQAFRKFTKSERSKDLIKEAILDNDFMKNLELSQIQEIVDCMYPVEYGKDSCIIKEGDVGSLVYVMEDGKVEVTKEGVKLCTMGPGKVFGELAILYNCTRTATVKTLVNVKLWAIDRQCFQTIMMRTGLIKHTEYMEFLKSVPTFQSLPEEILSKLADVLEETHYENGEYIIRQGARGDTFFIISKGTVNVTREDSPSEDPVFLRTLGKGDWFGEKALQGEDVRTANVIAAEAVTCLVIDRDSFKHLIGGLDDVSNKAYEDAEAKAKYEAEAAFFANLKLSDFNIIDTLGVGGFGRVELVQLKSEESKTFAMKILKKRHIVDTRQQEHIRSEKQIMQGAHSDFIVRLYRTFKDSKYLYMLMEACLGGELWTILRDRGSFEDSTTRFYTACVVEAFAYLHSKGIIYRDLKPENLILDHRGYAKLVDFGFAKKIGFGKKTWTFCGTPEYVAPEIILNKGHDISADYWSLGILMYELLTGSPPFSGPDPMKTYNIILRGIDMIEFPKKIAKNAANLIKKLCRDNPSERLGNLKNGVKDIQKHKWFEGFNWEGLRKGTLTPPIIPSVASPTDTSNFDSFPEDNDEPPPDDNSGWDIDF
Chain of PASK (human) (Q96RG2 whole entry, looked up): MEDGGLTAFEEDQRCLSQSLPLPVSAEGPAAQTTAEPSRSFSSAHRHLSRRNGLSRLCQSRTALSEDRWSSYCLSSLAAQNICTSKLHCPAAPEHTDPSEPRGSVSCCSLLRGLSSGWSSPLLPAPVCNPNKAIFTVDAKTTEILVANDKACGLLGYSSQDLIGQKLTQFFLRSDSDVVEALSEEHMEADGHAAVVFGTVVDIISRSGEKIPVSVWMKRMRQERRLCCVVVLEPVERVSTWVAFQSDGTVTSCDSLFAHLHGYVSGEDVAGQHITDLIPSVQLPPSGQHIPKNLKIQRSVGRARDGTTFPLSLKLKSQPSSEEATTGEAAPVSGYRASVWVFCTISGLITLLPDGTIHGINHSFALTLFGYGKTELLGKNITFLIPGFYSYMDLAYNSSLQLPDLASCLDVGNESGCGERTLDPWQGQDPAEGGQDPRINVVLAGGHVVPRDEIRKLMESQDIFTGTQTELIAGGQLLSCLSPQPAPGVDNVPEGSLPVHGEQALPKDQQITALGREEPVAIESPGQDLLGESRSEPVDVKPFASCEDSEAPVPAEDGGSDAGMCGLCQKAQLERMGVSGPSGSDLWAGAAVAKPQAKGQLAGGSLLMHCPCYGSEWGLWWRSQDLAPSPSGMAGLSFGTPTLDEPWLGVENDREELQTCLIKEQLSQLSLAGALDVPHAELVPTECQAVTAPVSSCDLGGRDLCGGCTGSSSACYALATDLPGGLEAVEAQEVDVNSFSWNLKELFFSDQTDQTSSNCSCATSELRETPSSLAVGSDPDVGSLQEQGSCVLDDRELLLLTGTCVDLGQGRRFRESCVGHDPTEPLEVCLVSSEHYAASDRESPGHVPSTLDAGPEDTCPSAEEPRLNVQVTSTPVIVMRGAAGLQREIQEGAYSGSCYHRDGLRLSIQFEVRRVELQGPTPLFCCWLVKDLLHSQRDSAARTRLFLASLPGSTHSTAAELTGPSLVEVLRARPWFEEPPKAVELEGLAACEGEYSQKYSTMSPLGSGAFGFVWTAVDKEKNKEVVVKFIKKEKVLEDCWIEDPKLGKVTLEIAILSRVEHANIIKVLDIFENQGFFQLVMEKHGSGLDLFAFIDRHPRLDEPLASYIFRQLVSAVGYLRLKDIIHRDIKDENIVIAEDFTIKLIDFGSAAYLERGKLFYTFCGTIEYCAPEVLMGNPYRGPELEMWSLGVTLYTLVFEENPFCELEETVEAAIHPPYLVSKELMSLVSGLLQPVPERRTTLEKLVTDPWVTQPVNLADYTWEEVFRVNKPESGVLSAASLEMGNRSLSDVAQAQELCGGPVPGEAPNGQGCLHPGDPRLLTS
Chain of MAP3K7 TAB1 (human) (O43318 whole entry, looked up): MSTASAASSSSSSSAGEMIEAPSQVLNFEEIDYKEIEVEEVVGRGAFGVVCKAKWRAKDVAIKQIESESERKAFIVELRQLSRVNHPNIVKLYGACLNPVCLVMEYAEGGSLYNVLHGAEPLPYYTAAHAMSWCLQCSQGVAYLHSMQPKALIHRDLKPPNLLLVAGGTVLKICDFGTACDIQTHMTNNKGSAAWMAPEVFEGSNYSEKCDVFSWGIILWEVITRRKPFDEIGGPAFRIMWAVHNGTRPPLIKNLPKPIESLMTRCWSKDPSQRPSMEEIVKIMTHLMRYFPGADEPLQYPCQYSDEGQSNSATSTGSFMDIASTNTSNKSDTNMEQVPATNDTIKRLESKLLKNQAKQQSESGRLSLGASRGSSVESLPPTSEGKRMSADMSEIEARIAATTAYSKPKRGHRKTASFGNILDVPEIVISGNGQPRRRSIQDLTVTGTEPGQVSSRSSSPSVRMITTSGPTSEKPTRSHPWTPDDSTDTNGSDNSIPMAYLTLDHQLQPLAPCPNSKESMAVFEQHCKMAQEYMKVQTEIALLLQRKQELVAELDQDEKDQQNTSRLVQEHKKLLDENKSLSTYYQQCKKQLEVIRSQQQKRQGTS
Chain of MAP3K7 TAB1 (human) (Q15750 whole entry, looked up): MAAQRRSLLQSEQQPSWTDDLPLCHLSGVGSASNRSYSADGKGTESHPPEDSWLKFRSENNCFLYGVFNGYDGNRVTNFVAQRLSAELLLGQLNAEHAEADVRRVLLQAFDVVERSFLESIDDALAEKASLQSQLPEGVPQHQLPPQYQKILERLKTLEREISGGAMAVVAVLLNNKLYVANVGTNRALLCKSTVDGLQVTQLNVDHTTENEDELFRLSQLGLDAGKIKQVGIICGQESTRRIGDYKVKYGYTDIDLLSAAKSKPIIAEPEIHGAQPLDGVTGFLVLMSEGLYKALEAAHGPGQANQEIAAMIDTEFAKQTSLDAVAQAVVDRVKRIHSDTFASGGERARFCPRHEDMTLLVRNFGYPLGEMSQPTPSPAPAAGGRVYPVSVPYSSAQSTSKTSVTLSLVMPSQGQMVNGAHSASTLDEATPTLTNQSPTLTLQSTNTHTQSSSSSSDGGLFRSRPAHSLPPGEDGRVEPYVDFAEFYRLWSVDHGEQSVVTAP
Chain of CAMK2A (human) (Q9UQM7 whole entry, looked up): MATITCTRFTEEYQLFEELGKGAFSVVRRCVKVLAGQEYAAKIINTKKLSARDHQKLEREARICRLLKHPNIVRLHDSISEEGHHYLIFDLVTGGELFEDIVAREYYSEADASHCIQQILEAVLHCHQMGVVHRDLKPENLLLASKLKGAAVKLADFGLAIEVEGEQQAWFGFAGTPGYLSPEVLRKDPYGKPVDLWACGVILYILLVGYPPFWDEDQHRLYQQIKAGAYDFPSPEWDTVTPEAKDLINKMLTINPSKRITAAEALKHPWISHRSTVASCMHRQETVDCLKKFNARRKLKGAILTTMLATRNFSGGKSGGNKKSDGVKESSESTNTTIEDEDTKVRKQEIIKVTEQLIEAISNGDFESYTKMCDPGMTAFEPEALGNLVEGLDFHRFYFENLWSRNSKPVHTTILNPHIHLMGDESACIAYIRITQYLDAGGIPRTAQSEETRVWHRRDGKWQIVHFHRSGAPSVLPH
Chain of STK25 (human) (O00506 whole entry, looked up): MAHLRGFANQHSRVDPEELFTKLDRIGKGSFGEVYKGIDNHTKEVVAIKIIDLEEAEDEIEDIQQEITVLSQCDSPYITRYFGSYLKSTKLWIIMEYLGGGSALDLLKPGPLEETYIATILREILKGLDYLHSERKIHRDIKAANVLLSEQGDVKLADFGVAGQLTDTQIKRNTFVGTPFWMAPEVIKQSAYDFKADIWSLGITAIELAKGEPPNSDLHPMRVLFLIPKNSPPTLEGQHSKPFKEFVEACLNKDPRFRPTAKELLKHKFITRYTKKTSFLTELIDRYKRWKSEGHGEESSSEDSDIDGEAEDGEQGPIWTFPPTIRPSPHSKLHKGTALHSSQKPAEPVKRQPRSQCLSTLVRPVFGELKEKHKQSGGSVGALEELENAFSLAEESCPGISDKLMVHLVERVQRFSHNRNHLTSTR
Chain of CAMK2D (human) (Q13557 whole entry, looked up): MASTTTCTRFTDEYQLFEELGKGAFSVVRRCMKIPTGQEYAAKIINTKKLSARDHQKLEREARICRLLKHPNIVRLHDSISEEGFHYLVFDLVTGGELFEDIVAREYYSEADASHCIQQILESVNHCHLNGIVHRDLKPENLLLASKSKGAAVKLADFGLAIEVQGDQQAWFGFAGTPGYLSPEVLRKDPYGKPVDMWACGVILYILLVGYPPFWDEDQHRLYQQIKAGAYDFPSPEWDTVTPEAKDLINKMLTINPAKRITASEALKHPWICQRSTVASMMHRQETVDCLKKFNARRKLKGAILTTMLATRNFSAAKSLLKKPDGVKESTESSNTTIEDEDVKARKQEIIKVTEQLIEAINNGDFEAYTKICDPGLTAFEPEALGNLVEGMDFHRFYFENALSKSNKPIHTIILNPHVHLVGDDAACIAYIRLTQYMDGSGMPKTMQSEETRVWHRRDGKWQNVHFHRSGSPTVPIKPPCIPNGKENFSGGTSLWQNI
Chain of CAMK1 (human) (Q14012 whole entry, looked up): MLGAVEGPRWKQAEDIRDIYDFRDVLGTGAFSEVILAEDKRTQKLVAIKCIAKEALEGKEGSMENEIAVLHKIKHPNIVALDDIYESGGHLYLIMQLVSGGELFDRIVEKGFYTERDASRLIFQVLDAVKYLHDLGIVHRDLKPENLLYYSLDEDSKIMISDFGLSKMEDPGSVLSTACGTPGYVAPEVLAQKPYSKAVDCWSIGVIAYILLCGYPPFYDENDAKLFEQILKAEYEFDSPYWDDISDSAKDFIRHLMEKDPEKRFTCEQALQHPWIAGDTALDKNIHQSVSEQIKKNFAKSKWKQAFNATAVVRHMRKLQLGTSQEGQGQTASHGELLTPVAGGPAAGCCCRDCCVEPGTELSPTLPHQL

Row | Compound | residual activity (TGFBR2 (human)) | residual activity (FGR (human)) | residual activity (NEK6 (human)) | residual activity (PNCK (human)) | residual activity (CDK6 CCND3 (human)) | residual activity (STK33 (human)) | residual activity (STK3 (human)) | residual activity (MAP3K7 TAB1 (human)) | residual activity (MAP2K1 (human)) | residual activity (EPHB3 (human)) | residual activity (STK10 (human)) | residual activity (DCLK2 (human)) | residual activity (CAMK2A (human)) | residual activity (NEK9 (human)) | residual activity (MAPKAPK3 (human)) | residual activity (PRKG1 (human)) | residual activity (STK17A (human)) | residual activity (CLK1 (human)) | residual activity (JAK3 JH1 JH2 (human)) | residual activity (IRAK1 (human)) | other results
1 | CCN(CC)CCNC(=O)c1c(C)[nH]c(/C=C2\C(=O)Nc3ccc(F)cc32)c1C | 92.5% | 16.4% | 89% | 98.5% | 59.7% | 31.8% | 24.8% | 18.6% | 67.8% | 77.4% | 31.2% | 85% | 14.5% | 100% | 102% | 65.3% and 88.8% | 26.7% | 23.3% | 80.7% | 31.4% | residual activity (STK25 (human)): 76.1%; residual activity (CAMK2B (human)): 46.7%; residual activity (CAMK4 (human)): 88.6%; residual activity (MAPK8 (human)): 91.8%; residual activity (STK38 (human)): 93.8%; residual activity (CAMK2G (human)): 25.1%; residual activity (MAP3K5 (human)): 100%; residual activity (MYLK (human)): 25.6%; residual activity (MAP3K11 (human)): 68.4%; residual activity (PASK (human)): 102%; residual activity (STK16 (human)): 55.7%; residual activity (MINK1 (human)): 10.5%; residual activity (MAP4K4 (human)): 12.4%; residual activity (CDK4 CCND3 (human)): 93%; residual activity (CAMK1 (human)): 75.2%; residual activity (ROCK2 (human)): 72.1%; residual activity (CAMK2D (human)): 11.6%
2 | CNC(=O)c1cc(Oc2ccc(NC(=O)Nc3ccc(Cl)c(C(F)(F)F)c3)cc2)ccn1 | 99.9% | 88.7% | 105% | 94.7% | 104% | 83.9% | 96.9% | 101% | 102% | 95.5% | 72.4% | 102% | 95.3% | 95.4% | 100% | 104% and 88.6% | 96% | 97.7% | 99.4% | 101% | residual activity (MAPK3 (human)): 105%; residual activity (CDK5 CDK5R1 p35 (human)): 99.9%; residual activity (GRK5 (human)): 97.8%; residual activity (STK25 (human)): 104%; residual activity (CAMK2B (human)): 96.7%; residual activity (CAMK4 (human)): 107%; residual activity (MAPK8 (human)): 92.8%; residual activity (STK38 (human)): 99.8%; residual activity (CAMK2G (human)): 108%; residual activity (MAP3K5 (human)): 103%; residual activity (MYLK (human)): 93.7%; residual activity (MAP3K11 (human)): 98.3%; residual activity (PASK (human)): 99.5%; residual activity (STK16 (human)): 105%; residual activity (MINK1 (human)): 108%; residual activity (MAP4K4 (human)): 96.1%; residual activity (CDK4 CCND3 (human)): 114%; residual activity (CAMK1 (human)): 106%; residual activity (ROCK2 (human)): 101%; residual activity (CAMK2D (human)): 102%
